Experiments:
[1] = biological target: T1, EGFR (Homo sapiens, UniProt P00533); experiment: EGFR Kinase Assay; type: biochemical; settings: for IC50: GST-EGFR, ATP 5 μM; for inhibition at 2 µM: test concentration of 2 μM, compounds without an IC50, read-out: EGFR inhibition in percent
T1 construct: The intracellular portion of EGFR started at nucleotide 2189 (corresponding to amino acid 667) and ended at the termination codon; made in house; host or cells: Sf9 insect cells (baculovirus)
Procedure, shortened: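 Potency came from triplicate 16-point half-log titrations starting at 200 uM, with IC50 fitted from % inhibition against log concentration, or % inhibition at 2 μM otherwise. Reaction: Sf9-made GST–EGFR cytoplasmic region (aa 667 onward), biotin-polyGluTyr, 5 μM ATP with 33P tracer, pH 8.0 Tris/Mg/vanadate/DTT, 30 °C for 1 h; captured on streptavidin Flashplates and counted.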

[2] = biological target: T2, HER-2 (Homo sapiens, UniProt P04626); experiment: HER-2 Kinase Assay; type: biochemical; settings: value in parentheses
T2 construct: His6 with thrombin site (N); purchased Proqinase (Freiburg, Germany)
T2 sequence (P04626 679-1255): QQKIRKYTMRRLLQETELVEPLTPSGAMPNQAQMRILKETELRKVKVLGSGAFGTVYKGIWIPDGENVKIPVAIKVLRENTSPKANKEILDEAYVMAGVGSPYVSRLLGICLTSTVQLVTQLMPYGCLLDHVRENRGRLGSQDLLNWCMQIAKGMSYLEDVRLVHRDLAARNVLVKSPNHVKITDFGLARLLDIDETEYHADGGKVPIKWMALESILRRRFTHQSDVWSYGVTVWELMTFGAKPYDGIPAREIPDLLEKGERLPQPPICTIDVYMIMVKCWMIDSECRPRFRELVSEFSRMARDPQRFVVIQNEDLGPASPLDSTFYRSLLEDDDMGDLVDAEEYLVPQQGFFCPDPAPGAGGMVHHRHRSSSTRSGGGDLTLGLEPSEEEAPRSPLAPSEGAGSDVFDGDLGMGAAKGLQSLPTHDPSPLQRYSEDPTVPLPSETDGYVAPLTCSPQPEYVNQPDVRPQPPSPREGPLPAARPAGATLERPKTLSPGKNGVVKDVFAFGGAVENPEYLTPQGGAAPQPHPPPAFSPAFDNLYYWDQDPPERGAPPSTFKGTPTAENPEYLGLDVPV
Procedure, shortened: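 Read-out was scintillation counting of 33P incorporated into biotinylated polyGluTyr captured on streptavidin plates. Reactions ran 1 h at 30 °C with GST-fused HER-2 residues 679–1255, 1 μM ATP, Mn2+ and Mg2+ at pH 7.5; data given as percent inhibition at 1 μM, with IC50 where determined.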

T1 sequence (P00533 669-1210 limits assumed): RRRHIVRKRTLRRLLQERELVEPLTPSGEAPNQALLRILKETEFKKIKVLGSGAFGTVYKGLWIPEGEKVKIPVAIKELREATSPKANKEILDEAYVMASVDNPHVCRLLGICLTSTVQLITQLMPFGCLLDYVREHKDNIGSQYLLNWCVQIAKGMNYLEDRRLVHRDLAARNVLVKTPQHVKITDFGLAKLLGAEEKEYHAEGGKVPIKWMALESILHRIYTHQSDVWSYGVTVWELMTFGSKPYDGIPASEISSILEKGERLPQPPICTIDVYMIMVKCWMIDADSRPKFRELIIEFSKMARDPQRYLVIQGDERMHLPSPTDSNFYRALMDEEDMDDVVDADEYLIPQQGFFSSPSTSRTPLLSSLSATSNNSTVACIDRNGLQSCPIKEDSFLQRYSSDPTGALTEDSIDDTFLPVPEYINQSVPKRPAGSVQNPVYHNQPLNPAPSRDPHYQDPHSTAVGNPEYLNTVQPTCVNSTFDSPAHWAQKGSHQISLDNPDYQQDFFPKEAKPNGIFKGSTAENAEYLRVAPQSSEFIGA

SMILES	IC50 [1]	IC50 [2]	inhibition at 2 µM [1]
O=C(Nc1cccc(CN2CCOCC2)c1)c1sc2ncnc3c2c1NC(=O)N3c1ccc(Oc2ccccc2)cc1 [Cpd 220, 4-oxo-5-(4-phenoxy-phenyl)-4,5-dihydro-3H-1-thia-3,5,6,8-tetraaza-acenaphthylene-2-carboxylic acid (3-morpholin-4-ylmethyl-phenyl)-amide]	141 nM	355 nM	
O=C(Nc1ccc(CN2CCOCC2)c(Cl)c1)c1sc2ncnc3c2c1NC(=O)N3c1ccc(Oc2ccccc2)cc1 [Cpd 221, 4-oxo-5-(4-phenoxy-phenyl)-4,5-dihydro-3H-1-thia-3,5,6,8-tetraaza-acenaphthylene-2-carboxylic acid (3-chloro-4-morpholin-4-ylmethyl-phenyl)-amide]	85 nM	111 nM	
CCOC(=O)c1sc2ncnc3c2c1NC(=O)N3c1ccc(OCc2ccco2)c(Cl)c1 [Cpd 222, 5-[3-chloro-4-(furan-2-ylmethoxy)-phenyl]-4-oxo-4,5-dihydro-3H-1-thia-3,5,6,8-tetraaza-acenaphthylene-2-carboxylic acid ethyl ester]		> 100000 nM	4%
CCOC(=O)c1sc2ncnc3c2c1NC(=O)N3c1ccc(OCc2cccs2)c(Cl)c1 [Cpd 223, 5-[3-chloro-4-(thiophen-2-ylmethoxy)-phenyl]-4-oxo-4,5-dihydro-3H-1-thia-3,5,6,8-tetraaza-acenaphthylene-2-carboxylic acid ethyl ester]		> 100000 nM	5%
CN1CCC(NC(=O)c2sc3ncnc4c3c2NC(=O)N4c2ccc(OCc3cccs3)c(Cl)c2)CC1 [Cpd 230, 5-[3-chloro-4-(thiophen-2-ylmethoxy)-phenyl]-4-oxo-4,5-dihydro-3H-1-thia-3,5,6,8-tetraaza-acenaphthylene-2-carboxylic acid (1-methyl-piperidin-4-yl)-amide]	109 nM	367 nM	
O=C(Nc1ccc(CN2CCOCC2)c(C(F)(F)F)c1)c1sc2ncnc3c2c1NC(=O)N3c1ccc(Oc2ccccc2)cc1 [Cpd 231, 4-oxo-5-(4-phenoxy-phenyl)-4,5-dihydro-3H-1-thia-3,5,6,8-tetraaza-acenaphthylene-2-carboxylic acid (4-morpholin-4-ylmethyl-3-trifluoromethyl-phenyl)-amide]	314 nM	1050 nM	
COc1cc(NC(=O)c2sc3ncnc4c3c2NC(=O)N4c2ccc(Oc3cccnc3)cc2)ccc1CN1CCOCC1 [Cpd 236, 4-oxo-5-[4-(pyridin-3-yloxy)-phenyl]-4,5-dihydro-3H-1-thia-3,5,6,8-tetraaza-acenaphthylene-2-carboxylic acid (3-methoxy-4-morpholin-4-ylmethyl-phenyl)-amide]	108 nM	454 nM	
O=C(Nc1ccc(CN2CCOCC2)cc1)c1sc2ncnc3c2c1NC(=O)N3c1ccc(Oc2cccnc2)cc1 [Cpd 237, 4-oxo-5-[4-(pyridin-3-yloxy)-phenyl]-4,5-dihydro-3H-1-thia-3,5,6,8-tetraaza-acenaphthylene-2-carboxylic acid (4-morpholin-4-ylmethyl-phenyl)-amide]	90 nM	454 nM	
O=C(Nc1ccc(CN2CCCCC2)cc1)c1sc2ncnc3c2c1NC(=O)N3c1ccc(Oc2cccnc2)cc1 [Cpd 238, 4-oxo-5-[4-(pyridin-3-yloxy)-phenyl]-4,5-dihydro-3H-1-thia-3,5,6,8-tetraaza-acenaphthylene-2-carboxylic acid (4-piperidin-1-ylmethyl-phenyl)-amide]	132 nM	1050 nM	
O=C(Nc1ccc(CN2CCOCC2)c(OC(F)(F)F)c1)c1sc2ncnc3c2c1NC(=O)N3c1ccc(Oc2ccccc2)cc1 [Cpd 239, 4-oxo-5-(4-phenoxy-phenyl)-4,5-dihydro-3H-1-thia-3,5,6,8-tetraaza-acenaphthylene-2-carboxylic acid (4-morpholin-4-ylmethyl-3-trifluoromethoxy-phenyl)-amide]	114 nM	414 nM	
CCOC(=O)c1sc2ncnc3c2c1NC(=O)N3c1ccc(NC(=O)c2ccccc2)cc1 [Cpd 241, 5-(4-benzoylamino-phenyl)-4-oxo-4,5-dihydro-3H-1-thia-3,5,6,8-tetraaza-acenaphthylene-2-carboxylic acid ethyl ester]		> 100000 nM	-2%
CN1CCC(NC(=O)c2sc3ncnc4c3c2NC(=O)N4c2ccc(OCc3ccco3)c(Cl)c2)CC1 [Cpd 247, 5-[3-chloro-4-(furan-2-ylmethoxy)-phenyl]-4-oxo-4,5-dihydro-3H-1-thia-3,5,6,8-tetraaza-acenaphthylene-2-carboxylic acid (1-methyl-piperidin-4-yl)-amide]	249 nM	1190 nM	

Stronger by IC50 [2], values ahead:

IC50 [1]	IC50 [2]	inhibition at 2 µM [1]	SMILES
23 nM	85 nM		O=C(Nc1ccc(CN2CCCCC2)cc1)c1sc2ncnc3c2c1NC(=O)N3c1ccc(OCc2ccco2)c(Cl)c1 [Cpd 244, 5-[3-chloro-4-(furan-2-ylmethoxy)-phenyl]-4-oxo-4,5-dihydro-3H-1-thia-3,5,6,8-tetraaza-acenaphthylene-2-carboxylic acid (4-piperidin-1-ylmethyl-phenyl)-amide]
16 nM	83 nM		COc1cc(NC(=O)c2sc3ncnc4c3c2NC(=O)N4c2ccc(OCc3ccco3)c(Cl)c2)ccc1CN1CCCCC1 [Cpd 243, 5-[3-chloro-4-(furan-2-ylmethoxy)-phenyl]-4-oxo-4,5-dihydro-3H-1-thia-3,5,6,8-tetraaza-acenaphthylene-2-carboxylic acid (3-methoxy-4-piperidin-1-ylmethyl-phenyl)-amide]
14 nM	73 nM		CN1CCN(Cc2ccc(NC(=O)c3sc4ncnc5c4c3NC(=O)N5c3ccc(Sc4ccccc4)cc3)cc2)CC1 [Cpd 218, 4-oxo-5-(4-phenylsulfanyl-phenyl)-4,5-dihydro-3H-1-thia-3,5,6,8-tetraaza-acenaphthylene-2-carboxylic acid [4-(4-methyl-piperazin-1-ylmethyl)-phenyl]-amide]
127 nM	58 nM		COc1cc(NC(=O)c2sc3ncnc4c3c2NC(=O)N4c2ccc(Sc3ccccc3)cc2)ccc1CN1CCOCC1 [Cpd 219, 4-oxo-5-(4-phenylsulfanyl-phenyl)-4,5-dihydro-3H-1-thia-3,5,6,8-tetraaza-acenaphthylene-2-carboxylic acid (3-methoxy-4-morpholin-4-ylmethyl-phenyl)-amide]
22 nM	47 nM		COc1cc(NC(=O)c2sc3ncnc4c3c2NC(=O)N4c2ccc(OCc3ccco3)c(Cl)c2)ccc1CN1CCOCC1 [Cpd 246, 5-[3-chloro-4-(furan-2-ylmethoxy)-phenyl]-4-oxo-4,5-dihydro-3H-1-thia-3,5,6,8-tetraaza-acenaphthylene-2-carboxylic acid (3-methoxy-4-morpholin-4-ylmethyl-phenyl)-amide]
22 nM	42 nM		COc1cc(NC(=O)c2sc3ncnc4c3c2NC(=O)N4c2ccc(Oc3ccccc3)cc2)ccc1CN1CCCCC1 [Cpd 242, 4-oxo-5-(4-phenoxy-phenyl)-4,5-dihydro-3H-1-thia-3,5,6,8-tetraaza-acenaphthylene-2-carboxylic acid (3-methoxy-4-piperidin-1-ylmethyl-phenyl)-amide]
19 nM	33 nM		O=C(Nc1ccc(CN2CCCCC2)cc1)c1sc2ncnc3c2c1NC(=O)N3c1ccc(OCc2cccs2)c(Cl)c1 [Cpd 227, 5-[3-chloro-4-(thiophen-2-ylmethoxy)-phenyl]-4-oxo-4,5-dihydro-3H-1-thia-3,5,6,8-tetraaza-acenaphthylene-2-carboxylic acid (4-piperidin-1-ylmethyl-phenyl)-amide]
17 nM	33 nM		COc1cc(NC(=O)c2sc3ncnc4c3c2NC(=O)N4c2ccc(OCc3cccs3)c(Cl)c2)ccc1CN1CCCCC1 [Cpd 228, 5-[3-chloro-4-(thiophen-2-ylmethoxy)-phenyl]-4-oxo-4,5-dihydro-3H-1-thia-3,5,6,8-tetraaza-acenaphthylene-2-carboxylic acid (3-methoxy-4-piperidin-1-ylmethyl-phenyl)-amide]
14 nM	27 nM		COc1cc(NC(=O)c2sc3ncnc4c3c2NC(=O)N4c2ccc(Sc3ccccc3)cc2)ccc1CN1CCCCC1 [Cpd 224, 4-oxo-5-(4-phenylsulfanyl-phenyl)-4,5-dihydro-3H-1-thia-3,5,6,8-tetraaza-acenaphthylene-2-carboxylic acid (3-methoxy-4-piperidin-1-ylmethyl-phenyl)-amide]
33 nM	27 nM		O=C(Nc1ccc(CN2CCOCC2)cc1)c1sc2ncnc3c2c1NC(=O)N3c1ccc(OCc2cccs2)c(Cl)c1 [Cpd 226, 5-[3-chloro-4-(thiophen-2-ylmethoxy)-phenyl]-4-oxo-4,5-dihydro-3H-1-thia-3,5,6,8-tetraaza-acenaphthylene-2-carboxylic acid (4-morpholin-4-ylmethyl-phenyl)-amide]
33 nM	17 nM		COc1cc(NC(=O)c2sc3ncnc4c3c2NC(=O)N4c2ccc(OCc3cccs3)c(Cl)c2)ccc1CN1CCOCC1 [Cpd 229, 5-[3-chloro-4-(thiophen-2-ylmethoxy)-phenyl]-4-oxo-4,5-dihydro-3H-1-thia-3,5,6,8-tetraaza-acenaphthylene-2-carboxylic acid (3-methoxy-4-morpholin-4-ylmethyl-phenyl)-amide]

Source: US7579356B2, “Thia-tetraazaacenaphthylene kinase inhibitors” (Janssen Pharmaceutica NV, priority 2005, dated 2009)
